# Test results: PubChem BioAssay AID720713 (Broad Institute, 2013)
# Active and inactive are the calls of the source. The rule behind the calls is not given here.
# Test system: not listed separately
# Assay: viability loss in A549 lung cancer cells – cell-based, plate reader, dry powder, set 2, dose response (AID 720713)
# Conditions: A549 cytotoxicity, plate reader; at 12 µM (top of the series)
row,Compound,"activity change, negative = cytotoxicity"
1,CN(C(=O)COc1ccccc1C(=O)NCCOc1ccccc1)c1ccccc1,2.59% (inactive)

# Same assay, conditions: A549 cytotoxicity, plate reader; at 26 µM (top of the series)
row,Compound,"activity change, negative = cytotoxicity"
1,CC(C)(C)NC(=O)CSc1nc2ccc(NC(=O)CSc3nnnn3Cc3ccccc3)cc2s1,16.7% (inactive)
2,CC(=O)N1CCN(C(=O)CCc2cc(C(C)(C)C)c(O)c(C(C)(C)C)c2)CC1,-4.62% (inactive)
3,CCOC(=O)c1ccc(NC(=O)Cn2ncc(Cl)c(Cl)c2=O)cc1,-6.56% (inactive)
4,COc1cc2ncnc(N[C@H](C)c3ccccc3)c2cc1OC,10.2% (inactive)
5,Cc1cc(N2CCCC2=O)cc(C)c1S(=O)(=O)NCCOc1ccc(C(C)(C)C)cc1,11% (inactive)
6,Cc1ccc2cc(CN(CC3CCCO3)C(=O)NC3CCCCC3)c(=O)[nH]c2c1C (configuration not stated),106% (inactive)
7,COc1cc(CN2CCc3ccccc3C2)ccc1O,-37.2% (inactive)
8,CC(=O)Nc1cccc(NC(=O)CSc2ncc(-c3ccc(Cl)cc3)n2Cc2ccco2)c1,11.6% (inactive)
9,COc1ccc(Nc2nc(N3CCCCC3)c3ccccc3n2)cc1,5.38% (inactive)
10,CCOC(=O)C1CCN(C(=O)c2ccc(OCC(=O)Nc3cccc(C(F)(F)F)c3)c(OC)c2)CC1,-17.5% (inactive)
11,CN(CC(=O)Nc1cccc(S(=O)(=O)N2CCOCC2)c1)CC(=O)Nc1ccc(Cl)c(C(F)(F)F)c1,8.78% (inactive)
12,COc1ccc(NS(=O)(=O)c2ccc(C(=O)N3CCCCCC3)cc2)cc1,22% (inactive)
13,CN(C)S(=O)(=O)c1cccc(NC(=O)c2cccc(S(=O)(=O)N3CCc4ccccc43)c2)c1,-0.758% (inactive)
14,O=C1CSc2ccc(C(=O)Nc3cccc(S(=O)(=O)Nc4ccc(Br)cc4)c3)cc2N1,12% (inactive)
15,CC(C)[C@H](NC(=O)OC(C)(C)C)c1nnc(S(=O)(=O)Cc2c(F)cccc2Cl)o1,22.5% (inactive)
16,COc1ccccc1N1CCN(c2ncc(C(=O)N3CCN(c4cccc(Cl)c4)CC3)c3ccccc23)CC1,4.47% (inactive)
17,Nc1nonc1C(=O)NCCNCc1cc(Br)ccc1OCc1ccc(F)cc1,4.85% (inactive)
18,O=c1c2ccccc2nc2n1C(CSCc1ccc(Cl)cc1Cl)CS2 (configuration not stated),6.09% (inactive)
19,Cc1cc2c(cc(C(=O)N3CCC(C(=O)NC4CCCC4)CC3)n2Cc2c(F)cccc2Cl)o1,-19.5% (inactive)
20,COc1ccc2c(c1)c(CC(=O)Nc1cc(C)ccc1C)c(C)n2C(=O)c1ccc(Cl)cc1,-1.36% (inactive)
21,CCCc1nnc(NC(=O)c2nc(S(=O)(=O)Cc3ccc(C)cc3)ncc2Cl)s1,8.63% (inactive)
22,O=C(c1nnsc1S(=O)c1ccc(Cl)cc1)N1CCOCC1 (configuration not stated),-41.1% (inactive)
23,Fc1ccc(-n2nnnc2-c2cnc(-c3cccs3)nc2C(F)(F)F)cc1,2.19% (inactive)
24,CCOC(=O)C1(Cc2ccc(Cl)cc2)CCN(C(C)Cc2ccc(O)c(OC)c2)CC1 (configuration not stated),1.75% (inactive)

# Test system: A549 cytotoxicity, plate reader
# Assay: as above
# Conditions: not given
row,Compound,AC50
1,COc1ccc(NC(=O)c2nc(S(=O)(=O)Cc3cccc(C)c3)ncc2Cl)c(OC)c1,> 52 µM (inactive)
2,CN(C)c1nc(-c2ccccn2)nnc1-c1ccccc1,25.6 µM
